Tests used:
Ctenocephalides felis [1] = assay: Ctenocephalides felis oral test; type: in vivo; settings: 100 ppm in citrated cattle blood, adult cat fleas, after 2 days
Description: Solvent: dimethyl sulfoxide To produce a suitable active compound preparation, 10 mg of active compound are mixed with 0.5 ml of dimethyl sulfoxide. Dilution with citrated cattle blood gives the desired concentration. About 20 unfed adult cat fleas (Ctenocephalides felis) are placed into a chamber which is closed at the top and bottom with gauze. A metal cylinder whose bottom end is closed with parafilm is placed onto the chamber. The cylinder contains the blood/active compound preparation, which can be imbibed by the fleas through the parafilm membrane. After 2 days, the kill in % is determined. 100% means that all of the fleas have been killed; 0% means that none of the fleas have been killed.

Meloidogyne incognita = Meloidogyne incognita test; type: in vivo; settings: 20 ppm, lettuce, after 14 days
Description: Solvent: 125.0 parts by weight of acetone To produce a suitable active compound preparation, 1 part by weight of active compound is mixed with the stated amount of solvent and the concentrate is diluted to the desired concentration with water. Vessels are filled with sand, active compound solution, an egg/larvae suspension of the southern root-knot nematode (Meloidogyne incognita) and lettuce seeds. The lettuce seeds germinate and the plants develop. The galls develop on the roots. After 14 days, the nematicidal efficacy in % is determined by the formation of galls. 100% means that no galls were found; 0% means that the number of galls on the treated plants corresponds to the untreated control.

Myzus persicae [2] = assay: Myzus persicae spray test (MYZUPE); type: in vivo; settings: 120 h; for pest or weed control at 500 g/ha / pest or weed control at 100 g/ha: foliar, Chinese cabbage leaf discs, after 5 days, read-out: efficacy; for Emax at 20 g/ha: MYZUPE, 5 dat, read-out: % efficacy
Description: Solvent: 78 parts by weight of acetone • • 1.5 parts by weight of dimethylformamide
(§1) Emulsifier: alkylaryl polyglycol ether
(§2) To produce a suitable active compound preparation, 1 part by weight of active compound is dissolved with the specified parts by weight of solvent and made up to the desired concentration with water containing an emulsifier concentration of 1000 ppm. To produce further test concentrations, the formulation is diluted with emulsifier-containing water.
Discs of Chinese cabbage leaves (Brassica pekinensis) infested by all stages of the green peach aphid (Myzus persicae) are sprayed with an active compound preparation of the desired concentration.
(§3) After 5 days, the efficacy in % is determined. 100% means that all the aphids have been killed; 0% means that no aphids have been killed.
(§4) Solvent: 78.0 parts by weight of acetone • • 1.5 parts by weight of dimethylformamide
After the desired period of time, the efficacy in % is determined. 100% means that all the aphids have been killed; 0% means that no aphids have been killed.

Phaedon cochleariae = Phaedon cochleariae spray test (PHAECO); type: in vivo; settings: for efficacy: larvae on Chinese cabbage leaf discs, after 7 days; for Emax at 20 g/ha: Phaedon cochleariae, 168 h, PHAECO, 7 dat, read-out: % efficacy
Description: as §4, §1, §2
After 7 days, the efficacy in % is determined. 100% means that all the beetle larvae have been killed; 0% means that no beetle larvae have been killed.
After the desired period of time, the efficacy in % is determined. 100% means that all the beetle larvae have been killed; 0% means that no beetle larvae have been killed.

Tetranychus urticae = Tetranychus urticae spray test, OP-resistant (TETRUR); type: in vivo; settings: for efficacy / Emax at 100 g/ha: 100 g/ha; for efficacy: bean leaf discs, after 6 days; for Emax at 100 g/ha / Emax at 500 g/ha: Tetranychus urticae, 144 h, TETRUR, read-out: % efficacy; for Emax at 100 g/ha: 6 dat (comparative table); for Emax at 500 g/ha: 6 dat
Description: as §4, §1, §2
Discs of bean leaves (Phaseolus vulgaris) infested with all stages of the greenhouse red spider mite (Tetranychus urticae) are sprayed with an active compound preparation of the desired concentration.
After 6 days, the efficacy in % is determined. 100% means that all the spider mites have been killed; 0% means that no spider mites have been killed.
After the desired period of time, the efficacy in % is determined. 100% means that all the spider mites have been killed; 0% means that no spider mites have been killed.

Nezara viridula = Nezara viridula spray test (NEZAVI); type: in vivo; settings: 96 h, 4 dat, read-out: % efficacy
Description: (§5) Solvent: 52.5 parts by weight of acetone • 7 parts by weight of dimethylformamide
as §1
as §2, with “water. If the addition of ammonium salts or/and penetrants is required, these are each added in a concentration of 1000 ppm to the formulation solution.” for “water.”
Barley plants (Hordeum vulgare) infected with larvae of the Southern green shield bug (Nezara viridula) are sprayed with an active compound preparation of the desired concentration.
After the desired period of time, the efficacy in % is determined. 100% means that all of the shield bugs have been killed; 0% means that none of the shield bugs have been killed.

Ctenocephalides felis [3] = assay: Ctenocephalides felis in vitro contact test with adult cat fleas; type: in vivo; settings: 5 μg/cm^2 (=500 g/ha), after 48 h
Description: For the coating of the test tubes, 9 mg of active compound are first dissolved in 1 ml of acetone p.a. and then diluted to the desired concentration with acetone p.a. 250 μl of the solution are distributed homogeneously on the inner walls and the base of a 25 ml glass tube by turning and rocking on an orbital shaker (rocking rotation at 30 rpm for 2 h). With 900 ppm of active compound solution and internal surface area 44.7 cm^2, given homogeneous distribution, an area-based dose of 5 μg/cm^2 is achieved.
After the solvent has evaporated off, the tubes are populated with 5-10 adult cat fleas (Ctenocephalides felis), sealed with a perforated plastic lid and incubated in a horizontal position at room temperature and ambient humidity. After 48 h, efficacy is determined. To this end, the tubes are stood upright and the fleas are knocked to the base of the tube. Fleas which remain motionless at the base or move in an uncoordinated manner are considered to be dead or moribund.
100% efficacy means that all the fleas were dead or moribund. 0% efficacy means that no fleas were harmed.

Lucilia cuprina = Lucilia cuprina test; type: in vivo; settings: 100 ppm, L1 larvae, after 2 days
Description: Solvent: dimethyl sulfoxide To produce a suitable active compound preparation, 10 mg of active compound are mixed with 0.5 ml of dimethyl sulfoxide, and the concentrate is diluted with water to the desired concentration. About 20 L1 larvae of the Australian sheep blowfly (Lucilia cuprina) are transferred into a test vessel containing minced horsemeat and the active compound preparation of the desired concentration. After 2 days, the kill in % is determined. 100% means that all the larvae have been killed; 0% means that no larvae have been killed.

[4] = log P by HPLC on reversed-phase column (EEC Directive 79/831 Annex V.A8); type: physicochemical; settings: reversed-phase C18 HPLC column, C 18 reversed phase, 55° C., pH 7.8, read-out: log P (neutral)
Description: Called log P (neutral) in the table.

Myzus persicae [5] = assay: Myzus persicae oral test; type: in vivo; settings: 120 h, after 5 days, read-out: efficacy
Description: Solvent: 100 parts by weight of acetone
To produce a suitable active compound preparation, 1 part by weight of active compound is dissolved with the stated parts by weight of solvent and made up to the desired concentration with water.
50 μl of the active compound preparation are transferred into microtitre plates and made up to a final volume of 200 μl with 150 μl of IPL41 insect medium (33%+15% sugar). Subsequently, the plates are sealed with parafilm, which a mixed population of green peach aphids (Myzus persicae) within a second microtitre plate is able to puncture and imbibe the solution.
as §3

Nilaparvata lugens = Nilaparvata lugens spray test (NILALU); type: in vivo; settings: 96 h, 4 dat, read-out: % efficacy
Description: as §5, §1
as §2, with “water. If the addition of ammonium salts or/and penetrants is required, these are each added in a concentration of 1000 ppm to the formulation solution.” for “water.”
Rice plants (Oryza sativa) are sprayed with an active compound preparation of the desired concentration and then populated with larvae of the brown planthopper (Nilaparvata lugens).
After the desired period of time, the efficacy in % is determined. 100% means that all of the planthoppers have been killed; 0% means that none of the planthoppers have been killed.

Row | Structure (SMILES) | efficacy (kill in %) (Ctenocephalides felis [1]) | nematicidal efficacy (formation of galls) (Meloidogyne incognita) | pest or weed control at 4 ppm (Myzus persicae [5]) | pest or weed control at 20 ppm (Myzus persicae [5]) | pest or weed control at 100 g/ha (Myzus persicae [2]) | other results
1 | CCNC(=O)Nc1ccc(S(=O)(=O)CC)c(-c2nc3cc(C(F)(F)F)ncc3n2C)n1 [Example I-1] | 100% | 100% |  |  |  | pest or weed control at 500 g/ha (Myzus persicae [2]): 90%; efficacy (Phaedon cochleariae; 500 g/ha): 100%; Emax at 20 g/ha (Phaedon cochleariae): 83%; efficacy (Tetranychus urticae): 90%; Emax at 100 g/ha (Tetranychus urticae): 90%; Emax at 500 g/ha (Tetranychus urticae): 90%
2 | CCC(=O)Nc1ccc(S(=O)(=O)CC)c(-c2nc3cc(C(F)(F)F)ncc3n2C)n1 [Example No. 13 known from WO 2016/124557, reference compound] |  |  |  |  |  | Emax at 20 g/ha (Phaedon cochleariae): 50%; Emax at 100 g/ha (Tetranychus urticae): 0%; Emax at 500 g/ha (Tetranychus urticae): 70%
3 | CCS(=O)(=O)c1ccc(NC(C)=O)nc1-c1nc2cc(C(F)(F)F)ncc2n1C [reference compound] |  |  |  |  |  | Emax at 20 g/ha (Nezara viridula): 0%
4 | CCS(=O)(=O)c1ccc(NC(=O)NC)nc1-c1nc2cc(C(F)(F)F)ncc2n1C [Example I-4, 1-[5-Ethylsulfonyl-6-[3-methyl-6-(trifluoromethyl)imidazo[4,5-c]pyridin-2-yl]-2-pyridyl]-3-methylurea] | 100% |  |  |  |  | efficacy (Ctenocephalides felis [3]): 100%; efficacy (kill in %) (Lucilia cuprina): 100%; pest or weed control at 500 g/ha (Myzus persicae [2]): 90%; efficacy (Phaedon cochleariae; 500 g/ha): 100%; Emax at 20 g/ha (Nezara viridula): 100%; chromatographic logP [4]: 1.83
5 | CCS(=O)(=O)c1ccc(NC(=O)NCCC#N)nc1-c1nc2cc(C(F)(F)F)ncc2n1C [Example I-2] | 100% | 100% | 100% | 100% |  | pest or weed control at 500 g/ha (Myzus persicae [2]): 90%
6 | CCS(=O)(=O)c1ccc(N(C)C(C)=O)nc1-c1nc2cc(C(F)(F)F)ncc2n1C [Example No. 69 known from WO 2016/124557, reference compound] |  |  |  |  |  | Emax at 20 g/ha (Myzus persicae [2]): 0%; Emax at 4 g/ha (Nilaparvata lugens): 0%
7 | CCS(=O)(=O)c1ccc(NC(=O)NCC[S+](C)[O-])nc1-c1nc2cc(C(F)(F)F)ncc2n1C (stereo not shown) [Example I-3] | 100% | 90% | 100% | 100% | 100% | efficacy (Tetranychus urticae): 100%
8 | CCS(=O)(=O)c1ccc(NC(=O)NC(C)C)nc1-c1nc2cc(C(F)(F)F)ncc2n1C [Example I-7] | 100% | 90% |  |  |  | 
9 | CCS(=O)(=O)c1ccc(NC(=O)NCCS(C)(=O)=O)nc1-c1nc2cc(C(F)(F)F)ncc2n1C [Example I-8] | 100% |  | 90% | 100% | 90% | efficacy (Tetranychus urticae): 100%
10 | CCS(=O)(=O)c1ccc(NC(=O)NCCOC)nc1-c1nc2cc(C(F)(F)F)ncc2n1C [Example I-5] | 80% | 100% | 100% | 100% |  | efficacy (kill in %) (Lucilia cuprina): 100%; pest or weed control at 500 g/ha (Myzus persicae [2]): 100%
11 | CCS(=O)(=O)c1ccc(N(C)C(=O)NC)nc1-c1nc2cc(C(F)(F)F)ncc2n1C [Example I-12] |  |  |  |  | 90% | Emax at 20 g/ha (Myzus persicae [2]): 90%; Emax at 4 g/ha (Nilaparvata lugens): 90%
12 | CCS(=O)(=O)c1ccc(NC(=O)n2cc(Br)cn2)nc1-c1nc2cc(C(F)(F)F)ncc2n1C [Example I-13] |  |  | 90% |  | 90% | 
13 | CCS(=O)(=O)c1ccc(NC(=O)N(C)C)nc1-c1nc2cc(C(F)(F)F)ncc2n1C [Example I-15] |  | 100% | 100% |  | 90% | efficacy (Phaedon cochleariae; 100 g/ha): 100%
14 | CCS(=O)(=O)c1ccc(NC(=O)NCCSC)nc1-c1nc2cc(C(F)(F)F)ncc2n1C [Example I-6] |  |  | 100% | 100% | 90% | efficacy (Phaedon cochleariae; 100 g/ha): 100%; efficacy (Tetranychus urticae): 70%
15 | CCS(=O)(=O)c1ccc(NC(=O)N2CCCC2)nc1-c1nc2cc(C(F)(F)F)ncc2n1C [Example I-14] |  |  | 100% |  | 90% | 
